Results from US5445944A, “Methods for determining peroxidately active substances” (Syntex (U.S.A.) Inc., priority 1994, dated 1995).

Assays:
[1] = Suitability of benzidines as hydrogen donor in the peroxidase cleavage reaction
HRP [2] = target: T1, HRP (Armoracia rusticana, UniProt P00433); test: Release of fluorophore, pH jump method (HRP/H2O2 cleavage at pH 5.0, fluorescence read at pH 8.0); format: biochemical, horseradish; conditions: pH jump: reaction in citrate buffer pH 5.0 with H2O2 and 0.1 mL HRP (10 ng/mL); aliquot read in phosphate buffer pH 8.0; experiment repeated (two lines)
T1 sequence (P00433 31-338 limits assumed): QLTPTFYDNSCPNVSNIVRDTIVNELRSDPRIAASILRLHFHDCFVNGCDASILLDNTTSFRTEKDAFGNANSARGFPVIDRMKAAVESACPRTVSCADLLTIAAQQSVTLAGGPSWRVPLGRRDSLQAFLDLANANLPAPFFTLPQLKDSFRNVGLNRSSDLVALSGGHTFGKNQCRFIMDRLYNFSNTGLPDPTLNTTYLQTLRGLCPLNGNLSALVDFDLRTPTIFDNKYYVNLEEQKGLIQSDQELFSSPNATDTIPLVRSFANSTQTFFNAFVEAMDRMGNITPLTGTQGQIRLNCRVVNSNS
Experimental: 0.01 mL of dicarboxidine 11 (or XV), 0.1 mL of 49 and 0.04 mL of H2 O2 were added to 0.75 mL (0.76 mL) citrate buffer (pH 5.0, 0.1M); 0.1 mL of HRP (10 ng/mL) was added to start the reaction. 0.05 mL of this solution was taken every three minutes and added to 0.95 mL of phosphate buffer (pH 8.0, 1.0M) and spectra recorded. This experiment was repeated.
Results: Fluorescence after 3 minutes--background fluorescence.

HRP [3] = target: T1, HRP; test: Release of fluorophore at pH 7.0 (HRP/H2O2); format: biochemical, horseradish; conditions: phosphate buffer 0.1M pH 7.0, H2O2, 0.1 mL HRP (100 ng/mL); experiment repeated (two lines)
Experimental: 0.01 mL of dicarboxidine 11 (or XV), 0.1 mL of 49 and 0.04 mL of H2 O2 were added to 0.75 mL (0.76 mL) of phosphate buffer (0.1M, pH 7.0). 0.1 mL of HRP (100 ng/mL) was added to start the reaction and the spectra recorded. This experiment was repeated.

[4] = Trapping of / reaction with oxidized dicarboxidine in solution

| SMILES | Function as benzidine hydrogen donor [1] | Effect on / reaction with oxidized dicarboxidine [4] | further results |
| --- | --- | --- | --- |
| Cc1cc(-c2cc(C)c(N)c(C)c2)cc(C)c1N [3,3',5,5'-tetramethylbenzidine] | do not react at a rate acceptable for assays | – | – |
| O=C(NCCS(=O)(=O)O)c1cc2ccc(Oc3ccc(O)cc3)cc2oc1=O [Compound 49] | – | – | Fluorescence after 3 minutes--background fluorescence (HRP [2]): 0.50 F.U.; Fluorescence (HRP [3]): 40 F.U. |
| COc1ccc(O)cc1C(=O)O [2-methoxy-5-hydroxybenzoic acid] | – | react with oxidized dicarboxidine | – |
| Nc1ccc(-c2ccc(N)cc2)cc1 [benzidine] | function in the present invention | – | – |
| COc1ccc(OC)cc1 [Para-methoxy anisole] | – | has no effect on oxidized dicarboxidine | – |
| CN(C)c1ccc(-c2ccc(N(C)C)cc2)cc1 [N,N,N',N'-tetramethylbenzidine] | do not react at a rate acceptable for assays | – | – |
| Cc1cc(-c2ccc(N)c(C)c2)ccc1N [3,3'-dimethylbenzidine] | function in the present invention | – | – |
| COc1ccc(O)c(C(=O)O)c1 [2-hydroxy-5-methoxy benzoic acid] | – | has no effect on oxidized dicarboxidine | – |
| O=C(O)c1cc(O)ccc1O [Gentisic acid, gentisic acid] | – | react with oxidized dicarboxidine | – |
| COc1ccccc1OC [ortho-methoxy anisole] | – | has no effect on oxidized dicarboxidine | – |
